Measured values from BindingDB's records for doi:10.1016/j.bmcl.2014.07.007 (Astrazeneca, 2014).

Assays:
[1] = target: Phosphatidylinositol 4,5-bisphosphate 3-kinase catalytic subunit beta isoform (Homo sapiens, UniProt P42338); assay: Inhibition of human recombinant PI3Kbeta assessed as PIP3 production by AlphaScreen assay
[2] = target: Phosphatidylinositol 4,5-bisphosphate 3-kinase catalytic subunit alpha isoform (Homo sapiens, UniProt P42336); assay: Inhibition of human recombinant PI3Kalpha assessed as PIP3 production by AlphaScreen assay
Sequence of Phosphatidylinositol 4,5-bisphosphate 3-kinase catalytic subunit alpha isoform (P42336 whole entry, canonical isoform): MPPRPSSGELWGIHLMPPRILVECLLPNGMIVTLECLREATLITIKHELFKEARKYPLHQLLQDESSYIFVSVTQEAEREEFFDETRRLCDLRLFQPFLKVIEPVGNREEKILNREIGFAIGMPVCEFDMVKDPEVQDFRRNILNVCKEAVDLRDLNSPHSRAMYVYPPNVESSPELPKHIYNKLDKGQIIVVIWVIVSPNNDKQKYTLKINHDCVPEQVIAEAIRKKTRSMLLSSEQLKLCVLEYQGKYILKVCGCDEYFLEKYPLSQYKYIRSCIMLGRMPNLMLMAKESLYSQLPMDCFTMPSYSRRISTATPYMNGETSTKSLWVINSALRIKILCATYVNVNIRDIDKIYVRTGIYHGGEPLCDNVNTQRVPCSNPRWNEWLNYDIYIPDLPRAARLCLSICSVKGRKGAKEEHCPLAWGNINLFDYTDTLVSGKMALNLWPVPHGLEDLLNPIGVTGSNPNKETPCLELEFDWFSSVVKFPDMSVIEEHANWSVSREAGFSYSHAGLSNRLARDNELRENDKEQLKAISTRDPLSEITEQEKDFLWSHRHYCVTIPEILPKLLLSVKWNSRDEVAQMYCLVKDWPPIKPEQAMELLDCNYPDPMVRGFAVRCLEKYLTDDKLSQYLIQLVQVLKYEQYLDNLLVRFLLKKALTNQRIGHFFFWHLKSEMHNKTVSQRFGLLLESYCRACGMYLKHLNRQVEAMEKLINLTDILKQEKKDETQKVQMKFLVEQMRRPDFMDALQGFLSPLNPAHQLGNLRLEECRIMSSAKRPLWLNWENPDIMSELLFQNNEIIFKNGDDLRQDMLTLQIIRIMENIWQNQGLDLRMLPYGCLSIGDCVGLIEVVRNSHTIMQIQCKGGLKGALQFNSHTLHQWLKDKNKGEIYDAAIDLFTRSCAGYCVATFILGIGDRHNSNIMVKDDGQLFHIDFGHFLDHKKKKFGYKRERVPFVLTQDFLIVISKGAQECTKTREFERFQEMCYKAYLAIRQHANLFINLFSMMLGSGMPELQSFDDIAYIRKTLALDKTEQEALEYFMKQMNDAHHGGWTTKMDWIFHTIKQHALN

Sequence of Phosphatidylinositol 4,5-bisphosphate 3-kinase catalytic subunit beta isoform (P42338 whole entry, canonical isoform): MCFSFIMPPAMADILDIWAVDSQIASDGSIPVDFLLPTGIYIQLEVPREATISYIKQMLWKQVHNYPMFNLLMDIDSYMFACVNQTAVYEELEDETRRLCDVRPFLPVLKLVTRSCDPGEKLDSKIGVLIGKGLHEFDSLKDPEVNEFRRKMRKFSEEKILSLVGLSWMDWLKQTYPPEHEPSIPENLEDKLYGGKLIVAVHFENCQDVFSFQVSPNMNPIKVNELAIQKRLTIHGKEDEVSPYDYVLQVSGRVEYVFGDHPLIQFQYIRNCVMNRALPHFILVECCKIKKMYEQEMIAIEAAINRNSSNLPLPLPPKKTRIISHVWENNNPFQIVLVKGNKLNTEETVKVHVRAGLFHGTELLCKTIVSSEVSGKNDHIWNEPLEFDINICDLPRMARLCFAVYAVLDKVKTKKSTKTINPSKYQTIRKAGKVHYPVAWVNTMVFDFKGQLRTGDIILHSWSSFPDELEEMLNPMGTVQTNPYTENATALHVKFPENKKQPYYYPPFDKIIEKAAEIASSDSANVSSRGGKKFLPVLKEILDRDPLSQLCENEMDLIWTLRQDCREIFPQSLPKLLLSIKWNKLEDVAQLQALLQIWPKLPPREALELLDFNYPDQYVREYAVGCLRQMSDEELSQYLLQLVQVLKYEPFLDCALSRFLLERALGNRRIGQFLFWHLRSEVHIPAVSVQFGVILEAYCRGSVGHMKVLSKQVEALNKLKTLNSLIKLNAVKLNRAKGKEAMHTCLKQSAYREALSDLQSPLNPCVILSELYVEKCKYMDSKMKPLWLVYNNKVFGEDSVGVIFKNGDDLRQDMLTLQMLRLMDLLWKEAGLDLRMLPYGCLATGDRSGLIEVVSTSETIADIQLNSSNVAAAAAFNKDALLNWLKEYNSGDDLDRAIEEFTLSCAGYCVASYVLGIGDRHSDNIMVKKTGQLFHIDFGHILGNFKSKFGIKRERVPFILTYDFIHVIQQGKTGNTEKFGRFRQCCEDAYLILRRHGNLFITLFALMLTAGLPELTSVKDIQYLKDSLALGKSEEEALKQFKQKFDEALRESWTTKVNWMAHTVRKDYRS

Row | Structure (SMILES) | IC50 [1] [nM] | IC50 [2] [nM]
1 | CC(Nc1ccccc1)c1cc(C(=O)N(C)C)cn2c(=O)cc(N3CCOCC3)nc12 (centres undefined) | 68 | 2500
2 | CC(Nc1ccccc1)c1cc(C(=O)NCCN(C)C)cn2c(=O)cc(N3CCOCC3)nc12 (centres undefined) | 35 | 2300
3 | Cc1cc(C(C)Nc2ccccc2-c2nnn[nH]2)c2nc(N3CCOCC3)cc(=O)n2c1 (centres undefined) | 51 | 1410
4 | Cc1cc(C(C)Nc2ccccc2S(=O)(=O)O)c2nc(N3CCOCC3)cc(=O)n2c1 (centres undefined) | 30 | 330
5 | Cc1cc(C(C)Nc2cc(Cl)ccc2C(=O)O)c2nc(N3CCOCC3)cc(=O)n2c1 (centres undefined) | 31 | 1460
6 | Cc1cc(C(C)Nc2cccc(C(=O)O)c2)c2nc(N3CCOCC3)cc(=O)n2c1 (centres undefined) | 4800 | 12100
7 | Cc1c(F)cccc1OC(C)c1cc(C(=O)N(C)CCO)cn2c(=O)cc(N3CCOCC3)nc12 (centres undefined) | 46 | 600
8 | Cc1cc(OC(C)c2cc(C(=O)N(C)CCO)cn3c(=O)cc(N4CCOCC4)nc23)ccc1F (centres undefined) | 200 | –
9 | COc1cccc(OC(C)c2cc(C(=O)N(C)CCO)cn3c(=O)cc(N4CCOCC4)nc23)c1 (centres undefined) | 47 | 4500
10 | COc1ccccc1OC(C)c1cc(C(=O)N(C)CCO)cn2c(=O)cc(N3CCOCC3)nc12 (centres undefined) | 400 | 2500
11 | CC(Oc1cccc(C#N)c1)c1cc(C(=O)N(C)CCO)cn2c(=O)cc(N3CCOCC3)nc12 (centres undefined) | 1700 | 8200
12 | CC(Oc1ccccc1F)c1cc(C(=O)N(C)CCO)cn2c(=O)cc(N3CCOCC3)nc12 (centres undefined) | 660 | 3400
13 | Cc1cccc(OC(C)c2cc(C(=O)N(C)CCO)cn3c(=O)cc(N4CCOCC4)nc23)c1 (centres undefined) | 180 | 9400
14 | Cc1ccccc1OC(C)c1cc(C(=O)N(C)CCO)cn2c(=O)cc(N3CCOCC3)nc12 (centres undefined) | 110 | 1300
15 | CC(Oc1ccccc1)c1cc(C(=O)N(C)CCO)cn2c(=O)cc(N3CCOCC3)nc12 (centres undefined) | 190 | 10100
16 | CC(Nc1ccccc1)c1cc(C(=O)NCCN2CCNCC2)cn2c(=O)cc(N3CCOCC3)nc12 (centres undefined) | 76 | 4800
17 | CC(Nc1ccccc1)c1cc(C(=O)N(C)CC(=O)O)cn2c(=O)cc(N3CCOCC3)nc12 (centres undefined) | 340 | 3800
18 | CC(Nc1ccccc1)c1cc(C(=O)N2CCOCC2)cn2c(=O)cc(N3CCOCC3)nc12 (centres undefined) | 140 | 6900
19 | CC(Nc1ccccc1)c1cc(C(=O)N(C)CCO)cn2c(=O)cc(N3CCOCC3)nc12 (centres undefined) | 58 | 2200
20 | CC(Nc1ccccc1)c1cc(C(=O)O)cn2c(=O)cc(N3CCOCC3)nc12 (centres undefined) | 59 | 610
